From ChEMBL document CHEMBL5528056, “BAY-9835: Discovery of the First Orally Bioavailable ADAMTS7 Inhibitor” (J Med Chem, 2024)
Values after ≈ are worked out from the molar mass of the structure shown.

Legend:
[1] = Oral bioavailability in C57bl6 mouse at 1 mg/kg measured for >24 hrs by HPLC-MS/MS analysis; type: ADME, organism-based; conditions: in vivo
[2] = Volume of distribution at steady state in C57bl6 mouse at 0.3 mg/kg, iv measured for >24 hrs by HPLC-MS/MS analysis; type: ADME, organism-based; conditions: in vivo
[3] = Half life in C57bl6 mouse at 1 mg/kg, po measured for >24 hrs by HPLC-MS/MS analysis; type: ADME, organism-based; conditions: in vivo
[4] = Selectivity ratio of IC50 for ADAMTS4 (unknown origin) to IC50 for ADAMTS7 (unknown origin)
[5] = Fraction unbound in rat plasma; type: ADME, cell-free
[6] = Dose normalized AUC in Wistar rat at 1 mg/kg, po measured for >24 hrs by HPLC-MS/MS analysis; type: ADME, organism-based; conditions: in vivo
[7] = Selectivity ratio of IC50 for MMP15 (unknown origin) to IC50 for ADAMTS7 (unknown origin)
Cytochrome P450 3A4 = Cytochrome P450 3A4 (Homo sapiens, UniProt P08684); experiment: Inhibition of CYP3A4 in human liver microsomes using midazolam as substrate upto 20 uM by LC-MS/MS analysis; type: ADME, Microsome
[8] = Solubility of compound in FaSSIF measured after 24 hrs by HPLC analysis; type: ADME; conditions: simulated gi fluid
[9] = Oral bioavailability in Wistar rat at 1 mg/kg measured for >24 hrs by HPLC-MS/MS analysis; type: ADME, organism-based; conditions: in vivo
[10] = Solubility of compound in FeSSIF measured after 24 hrs by HPLC analysis; type: ADME; conditions: simulated gi fluid
[11] = Dose normalized AUC in C57bl6 mouse at 1 mg/kg, po measured for >24 hrs by HPLC-MS/MS analysis; type: ADME, organism-based; conditions: in vivo
[12] = Clearance in C57bl6 mouse at 0.3 mg/kg, iv measured for >24 hrs by HPLC-MS/MS analysis; type: ADME, organism-based; conditions: in vivo
[13] = Dose normalized AUC in Beagle dog at 0.3 mg/kg, iv measured for >24 hrs by HPLC-MS/MS analysis; type: ADME, organism-based, Canis lupus familiaris; conditions: in vivo
Cytochrome P450 2D6 = Cytochrome P450 2D6 (Homo sapiens, UniProt P10635); experiment: Inhibition of CYP2D6 in human liver microsomes using dextromethorphan as substrate upto 20 uM by LC-MS/MS analysis; type: ADME, Microsome
[14] = biological target: A disintegrin and metalloproteinase with thrombospondin motifs 7 (Rattus norvegicus, UniProt Q1EHB3); experiment: Inhibition of recombinant rat ADAMTS7 using HiLyteFluor-488 DELSSMVLELRGLRT-K(QXL520)-E-NH2 as substrate incubated for 120 mins by FRET assay
[15] = Volume of distribution at steady state in Beagle dog at 0.3 mg/kg, iv measured for >24 hrs by HPLC-MS/MS analysis; type: ADME, organism-based, Canis lupus familiaris; conditions: in vivo
[16] = Half life in Wistar rat at 1 mg/kg, po measured for >24 hrs by HPLC-MS/MS analysis; type: ADME, organism-based; conditions: in vivo
[17] = Clearance in iv-dosed Wistar rat measured after 24 hrs by HPLC-MS/MS analysis; type: ADME; conditions: in vivo
[18] = Lipophilicity, logD of compound at pH 7.5; type: physicochemical; conditions: buffer
[19] = Fraction unbound in mouse plasma; type: ADME, cell-free
[20] = Genotoxicity in Salmonella typhimurium by Ames […] test; type: toxicity; conditions: salmonella enterica subsp. enterica serovar typhimurium
Cytochrome P450 2C8 = biological target: T1, Cytochrome P450 2C8 (Homo sapiens, UniProt P10632); experiment: Inhibition of CYP2C8 in human liver microsomes using diclofenac as substrate upto 20 uM by LC-MS/MS analysis; type: ADME, Microsome
T1 sequence (P10632 whole entry): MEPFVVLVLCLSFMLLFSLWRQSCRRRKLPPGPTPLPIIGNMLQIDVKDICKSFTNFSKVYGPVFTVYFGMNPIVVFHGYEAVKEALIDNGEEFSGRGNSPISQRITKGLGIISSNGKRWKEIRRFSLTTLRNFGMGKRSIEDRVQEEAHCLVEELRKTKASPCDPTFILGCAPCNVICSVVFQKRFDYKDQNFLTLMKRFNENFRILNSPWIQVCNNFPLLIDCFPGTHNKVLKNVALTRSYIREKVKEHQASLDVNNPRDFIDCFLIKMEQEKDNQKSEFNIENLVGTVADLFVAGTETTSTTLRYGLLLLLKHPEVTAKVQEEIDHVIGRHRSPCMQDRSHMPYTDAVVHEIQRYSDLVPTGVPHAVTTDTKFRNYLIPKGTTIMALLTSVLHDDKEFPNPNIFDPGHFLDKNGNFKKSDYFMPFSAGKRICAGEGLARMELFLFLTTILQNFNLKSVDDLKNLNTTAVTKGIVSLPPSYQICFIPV

[21] = Dose normalized AUC in Wistar rat at 0.3 mg/kg, iv measured for >24 hrs by HPLC-MS/MS analysis; type: ADME, organism-based; conditions: in vivo
[22] = Stability in aqueous solution at pH 1 to 7 measured after 24 hrs by HPLC analysis; type: physicochemical; conditions: buffer, pH 1, 24 h
[23] = Clearance in Wistar rat at 0.3 mg/kg, iv measured for >24 hrs by HPLC-MS/MS analysis; type: ADME, organism-based; conditions: in vivo

Chain of A disintegrin and metalloproteinase with thrombospondin motifs 7 (Q1EHB3 whole entry): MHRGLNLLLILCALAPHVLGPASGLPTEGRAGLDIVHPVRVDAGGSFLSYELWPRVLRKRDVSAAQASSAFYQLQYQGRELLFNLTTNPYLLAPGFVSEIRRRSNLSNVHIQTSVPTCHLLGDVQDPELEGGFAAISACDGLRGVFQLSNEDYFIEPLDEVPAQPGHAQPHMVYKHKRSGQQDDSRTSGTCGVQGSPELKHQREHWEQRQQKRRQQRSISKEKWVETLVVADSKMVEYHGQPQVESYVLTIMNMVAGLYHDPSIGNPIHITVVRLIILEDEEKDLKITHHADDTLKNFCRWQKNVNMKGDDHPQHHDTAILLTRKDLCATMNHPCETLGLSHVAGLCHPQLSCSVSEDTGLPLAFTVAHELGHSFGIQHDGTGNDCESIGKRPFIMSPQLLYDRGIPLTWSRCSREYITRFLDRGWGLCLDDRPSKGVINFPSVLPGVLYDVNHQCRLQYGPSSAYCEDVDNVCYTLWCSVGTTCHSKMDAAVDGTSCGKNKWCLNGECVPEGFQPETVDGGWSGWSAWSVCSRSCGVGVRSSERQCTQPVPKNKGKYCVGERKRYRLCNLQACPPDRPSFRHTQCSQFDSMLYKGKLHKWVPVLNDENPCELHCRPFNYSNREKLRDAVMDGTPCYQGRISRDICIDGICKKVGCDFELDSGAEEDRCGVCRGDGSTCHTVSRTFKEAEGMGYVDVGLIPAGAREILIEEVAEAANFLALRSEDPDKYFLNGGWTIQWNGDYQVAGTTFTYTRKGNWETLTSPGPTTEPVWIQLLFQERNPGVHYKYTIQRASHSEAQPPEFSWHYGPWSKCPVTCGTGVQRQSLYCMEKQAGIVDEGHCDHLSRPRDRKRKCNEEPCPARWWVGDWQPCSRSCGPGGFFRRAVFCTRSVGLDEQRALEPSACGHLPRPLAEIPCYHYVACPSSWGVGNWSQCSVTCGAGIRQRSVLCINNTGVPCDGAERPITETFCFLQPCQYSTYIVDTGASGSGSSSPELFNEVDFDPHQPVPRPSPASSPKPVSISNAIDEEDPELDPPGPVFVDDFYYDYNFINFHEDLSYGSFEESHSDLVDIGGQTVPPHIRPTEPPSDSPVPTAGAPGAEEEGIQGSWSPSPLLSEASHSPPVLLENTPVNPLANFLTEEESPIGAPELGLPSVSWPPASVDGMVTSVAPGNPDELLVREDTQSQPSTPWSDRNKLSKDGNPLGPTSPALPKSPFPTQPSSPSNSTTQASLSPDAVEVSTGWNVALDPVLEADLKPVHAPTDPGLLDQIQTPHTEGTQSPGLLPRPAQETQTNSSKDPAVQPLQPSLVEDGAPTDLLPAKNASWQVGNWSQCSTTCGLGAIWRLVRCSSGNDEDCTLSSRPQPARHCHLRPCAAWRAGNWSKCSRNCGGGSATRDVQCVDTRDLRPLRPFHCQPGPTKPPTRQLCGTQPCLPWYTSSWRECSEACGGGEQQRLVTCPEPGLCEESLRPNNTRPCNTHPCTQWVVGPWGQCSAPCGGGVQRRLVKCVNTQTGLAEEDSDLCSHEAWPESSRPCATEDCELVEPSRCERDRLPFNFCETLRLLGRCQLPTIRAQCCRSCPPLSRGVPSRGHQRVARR
Chain of Cytochrome P450 2D6 (P10635 whole entry): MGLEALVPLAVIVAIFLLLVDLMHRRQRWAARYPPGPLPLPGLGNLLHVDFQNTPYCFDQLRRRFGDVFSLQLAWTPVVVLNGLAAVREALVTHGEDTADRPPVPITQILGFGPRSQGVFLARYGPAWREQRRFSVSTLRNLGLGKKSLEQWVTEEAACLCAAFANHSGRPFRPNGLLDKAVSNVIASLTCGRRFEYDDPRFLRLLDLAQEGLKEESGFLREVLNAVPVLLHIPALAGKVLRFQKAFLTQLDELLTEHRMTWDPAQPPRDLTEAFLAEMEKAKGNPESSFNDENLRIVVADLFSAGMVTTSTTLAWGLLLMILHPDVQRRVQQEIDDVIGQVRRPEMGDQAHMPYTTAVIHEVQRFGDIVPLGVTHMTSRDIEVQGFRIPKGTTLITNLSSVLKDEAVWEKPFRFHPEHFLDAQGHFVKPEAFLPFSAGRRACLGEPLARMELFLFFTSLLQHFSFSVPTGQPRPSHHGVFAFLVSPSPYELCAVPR
Chain of Cytochrome P450 3A4 (P08684 whole entry): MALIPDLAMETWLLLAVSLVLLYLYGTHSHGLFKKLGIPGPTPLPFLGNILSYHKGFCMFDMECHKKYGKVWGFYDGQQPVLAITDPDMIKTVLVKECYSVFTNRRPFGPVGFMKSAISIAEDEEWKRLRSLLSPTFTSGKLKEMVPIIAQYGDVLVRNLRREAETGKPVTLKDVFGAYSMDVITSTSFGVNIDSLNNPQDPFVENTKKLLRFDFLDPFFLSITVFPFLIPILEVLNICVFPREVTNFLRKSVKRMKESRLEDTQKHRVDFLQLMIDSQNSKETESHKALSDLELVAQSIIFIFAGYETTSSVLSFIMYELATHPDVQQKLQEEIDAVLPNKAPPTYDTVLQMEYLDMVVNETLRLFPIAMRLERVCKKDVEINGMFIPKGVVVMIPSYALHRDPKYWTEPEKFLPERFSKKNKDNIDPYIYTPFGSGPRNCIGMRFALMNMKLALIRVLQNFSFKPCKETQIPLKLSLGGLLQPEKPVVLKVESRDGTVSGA

Cn1nccc1[C@]1(CNC(=O)c2ccc(F)c(F)c2-c2ccc(C(F)(F)F)cc2)NC(=O)NC1=O
bioavailability [1]: 100%
Vdss [2]: 1.6 L/kg
t1/2 [3]: 2.5 h
Ratio IC50 [4]: 1120
Fu [5]: 5%
AUC/dose [6]: 3 kg·h/L
Ratio IC50 [7]: 13100
inhibition (INH) (Cytochrome P450 3A4): Not Active
solubility [8]: 0.297 mg/mL (≈ 602 µM)
F [9]: 96%
solubility [10]: 0.513 mg/mL (≈ 1040 µM)
AUC/dose [11]: 2 kg·h/L
CL [12]: 1.1 L/h/kg
AUC/dose [13]: 88 kg·h/L
inhibition (INH) (Cytochrome P450 2D6): Not Active
IC50 [14]: 0.027 µM
Vdss [15]: 0.4 L/kg
t1/2 [16]: 3.7 h
CL [17]: 0.6 L/h/kg
logD [18]: 3.2
Fu [19]: 11%
Activity [20]: Non-Toxic
inhibition (INH) (Cytochrome P450 2C8): Not Active
AUC/dose [21]: 3.1 kg·h/L
Stability [22]: Stable
CL [23]: 0.55 L/h/kg
